Like-named read-outs stand apart in the source and are kept apart here.
Legend:
[1] = biological target: human JAK1 (a.a. 837-1142) (Homo sapiens, UniProt P23458); experiment: In vitro JAK kinase assay (HTRF, phosphorylation of biotinylated peptide), JAK1; assay type: biochemical
Method: Compounds herein were tested for inhibitory activity of JAK targets according to the following in vitro assay described in Park et al., Analytical Biochemistry 1999, 269, 94-104. The catalytic domains of human JAK1 (a.a. 837-1142) and JAK2 (a.a. 828-1132) with an N-terminal His tag were expressed using baculovirus in insect cells and purified. The catalytic activity of JAK1 and JAK2 was assayed by measuring the phosphorylation of a biotinylated peptide. The phosphorylated peptide was detected by homogenous time resolved fluorescence (HTRF). […] Reactions were carried out at room temperature for 1 hour and then stopped with 20 μL 45 mM EDTA, 300 nM SA-APC, 6 nM Eu-Py20 in assay buffer (Perkin Elmer, Boston, Mass.). Binding to the Europium labeled antibody took place for 40 minutes and HTRF signal was measured on a Fusion plate reader (Perkin Elmer, Boston, Mass.). […] Data is indicated as ranges, wherein “+” is less than 10 nM; “++” is 10 nM to 25 nM; “+++” is greater than 25 nM to 100 nM; and “++++” is greater than 100 nM. Greater than 25 nM to 100 nM specifies a range with a lower endpoint “at greater than 25 nM” and an upper endpoint at 100 nM.

[2] = biological target: T1, JAK2 (a.a. 828-1132) (Homo sapiens, UniProt O60674); experiment: In vitro JAK kinase assay (HTRF, phosphorylation of biotinylated peptide), JAK2; assay type: biochemical
T1 construct: JAK2 (a.a. 828-1132); His tag (N)
Method: Compounds herein were tested for inhibitory activity of JAK targets according to the following in vitro assay described in Park et al., Analytical Biochemistry 1999, 269, 94-104. The catalytic domains of human JAK1 (a.a. 837-1142) and JAK2 (a.a. 828-1132) with an N-terminal His tag were expressed using baculovirus in insect cells and purified. The catalytic activity of JAK1 and JAK2 was assayed by measuring the phosphorylation of a biotinylated peptide. The phosphorylated peptide was detected by homogenous time resolved fluorescence (HTRF). […] Reactions were carried out at room temperature for 1 hour and then stopped with 20 μL 45 mM EDTA, 300 nM SA-APC, 6 nM Eu-Py20 in assay buffer (Perkin Elmer, Boston, Mass.). Binding to the Europium labeled antibody took place for 40 minutes and HTRF signal was measured on a Fusion plate reader (Perkin Elmer, Boston, Mass.). See Tables A-F for data related to compounds of the Examples (at 1 mM). Data is indicated as ranges, wherein “+” is less than 10 nM; “++” is 10 nM to 25 nM; “+++” is greater than 25 nM to 100 nM; and “++++” is greater than 100 nM. Greater than 25 nM to 100 nM specifies a range with a lower endpoint “at greater than 25 nM” and an upper endpoint at 100 nM.

[3] = read-out: JAK1 IC50 (nM) at 1 mM, Table E, 1 mM ATP

T1 sequence (O60674 828-1132): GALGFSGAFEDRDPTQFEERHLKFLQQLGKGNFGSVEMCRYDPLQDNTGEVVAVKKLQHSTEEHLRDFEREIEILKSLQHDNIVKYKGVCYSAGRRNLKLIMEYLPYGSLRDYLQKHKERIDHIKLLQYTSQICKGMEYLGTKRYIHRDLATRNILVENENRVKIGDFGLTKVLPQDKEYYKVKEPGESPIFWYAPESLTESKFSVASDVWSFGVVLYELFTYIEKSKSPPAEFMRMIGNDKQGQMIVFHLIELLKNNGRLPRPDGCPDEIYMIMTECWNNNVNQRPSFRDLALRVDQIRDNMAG
Sequence of human JAK1 (a.a. 837-1142) (P23458 849-1154): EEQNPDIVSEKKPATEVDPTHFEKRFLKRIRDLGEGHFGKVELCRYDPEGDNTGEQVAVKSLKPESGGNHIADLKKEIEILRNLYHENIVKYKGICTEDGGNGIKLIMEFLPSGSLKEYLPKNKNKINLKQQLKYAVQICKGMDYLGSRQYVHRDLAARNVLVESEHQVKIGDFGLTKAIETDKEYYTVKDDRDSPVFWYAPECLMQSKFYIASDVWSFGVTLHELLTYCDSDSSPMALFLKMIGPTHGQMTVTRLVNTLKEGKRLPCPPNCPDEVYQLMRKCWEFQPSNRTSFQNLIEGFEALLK

Compound	IC50 ([1]; Table F, 1 mM ATP) [nM]	IC50 ([2]; Table F, 1 mM ATP) [nM]	other results
3-[(4-{trans-3-(cyanomethyl)-3-[4-(7H-pyrrolo[2,3-d]pyrimidin-4-yl)-1H-pyrazol-1-yl]cyclobutyl}piperazin-1-yl)methyl]-5-[(dimethylamino)methyl]benzonitrile [Example 43]			IC50 ([1]; read-out: JAK1 IC50 (nM) at 1 mM ATP, Table F): 25 to 100 nM; IC50 ([2]; read-out: JAK2 IC50 (nM) at 1 mM ATP, Table F): > 100 nM
N#CC[C@]1(n2cc(-c3ncnc4[nH]ccc34)cn2)C[C@H](N2CCN(C(=O)N[C@H]3CCC[C@@H]3O)CC2)C1 (racemic) [Example 88, 4-{trans-3-(cyanomethyl)-3-[4-(7H-pyrrolo[2,3-d]pyrimidin-4-yl)-1H-pyrazol-1-yl]cyclobutyl}-N-(2-hydroxycyclopentyl)piperazine-1-carboxamide]	< 10	25 to 100	
N#CC[C@]1(n2cc(-c3ncnc4[nH]ccc34)cn2)C[C@H](N2CCN(C(=O)N[C@H]3CCC[C@H]3O)CC2)C1 (single isomer, unassigned) [Example 89]	< 10	25 to 100	
COCc1cc(OC2CCN([C@H]3C[C@@](CC#N)(n4cc(-c5ncnc6[nH]ccc56)cn4)C3)CC2)nc(C(F)(F)F)c1 (single isomer, unassigned) [Example 121, {cis-3-(4-{[4-(methoxymethyl)-6-(trifluoromethyl)pyridin-2-yl]oxy}piperidin-1-yl)-1-[4-(7H-pyrrolo[2,3-d]pyrimidin-4-yl)-1H-pyrazol-1-yl]cyclobutyl}acetonitrile]	25 to 100	> 100	
COCc1cc(OC2CCN([C@H]3C[C@](CC#N)(n4cc(-c5ncnc6[nH]ccc56)cn4)C3)CC2)nc(C(F)(F)F)c1 (single isomer, unassigned) [Example 122, {trans-3-(4-{[4-(methoxymethyl)-6-(trifluoromethyl)pyridin-2-yl]oxy}piperidin-1-yl)-1-[4-(7H-pyrrolo[2,3-d]pyrimidin-4-yl)-1H-pyrazol-1-yl]cyclobutyl}acetonitrile]	< 10	> 100	
N#CC[C@]1(n2cc(-c3ncnc4[nH]ccc34)cn2)C[C@H](N2CCC(Oc3cc(CO)cc(C(F)(F)F)n3)CC2)C1 (single isomer, unassigned) [Example 123, {trans-3-(4-{[4-(hydroxymethyl)-6-(trifluoromethyl)pyridin-2-yl]oxy}piperidin-1-yl)-1-[4-(7H-pyrrolo[2,3-d]pyrimidin-4-yl)-1H-pyrazol-1-yl]cyclobutyl}acetonitrile]	< 10	> 100	
N#CC[C@]1(n2cc(-c3ncnc4[nH]ccc34)cn2)C[C@@H](N2CCC(Oc3cc(CO)cc(C(F)(F)F)n3)CC2)C1 (single isomer, unassigned) [Example 124, {cis-3-(4-{[4-(hydroxymethyl)-6-(trifluoromethyl)pyridin-2-yl]oxy}piperidin-1-yl)-1-[4-(7H-pyrrolo[2,3-d]pyrimidin-4-yl)-1H-pyrazol-1-yl]cyclobutyl}acetonitrile]	25 to 100	> 100	
CC(C)(O)c1cc(OC2CCN([C@H]3C[C@](CC#N)(n4cc(-c5ncnc6[nH]ccc56)cn4)C3)CC2)nc(C(F)(F)F)c1 (single isomer, unassigned) [Example 125, {trans-3-(4-{[4-(1-hydroxy-1-methylethyl)-6-(trifluoromethyl)pyridin-2-yl]oxy}piperidin-1-yl)-1-[4-(7H-pyrrolo[2,3-d]pyrimidin-4-yl)-1H-pyrazol-1-yl]cyclobutyl}acetonitrile]	< 10	25 to 100	
CC(C)(O)c1cc(OC2CCN([C@H]3C[C@@](CC#N)(n4cc(-c5ncnc6[nH]ccc56)cn4)C3)CC2)nc(C(F)(F)F)c1 (single isomer, unassigned) [Example 126, {cis-3-(4-{[4-(1-hydroxy-1-methylethyl)-6-(trifluoromethyl)pyridin-2-yl]oxy}piperidin-1-yl)-1-[4-(7H-pyrrolo[2,3-d]pyrimidin-4-yl)-1H-pyrazol-1-yl]cyclobutyl}acetonitrile]	10 to 25	> 100	
N#CC[C@]1(n2cc(-c3ncnc4[nH]ccc34)cn2)C[C@@H](N2CCC(Oc3cc(C#N)cc(C(F)(F)F)n3)CC2)C1 (single isomer, unassigned) [Example 133, 2-[(1-{cis-3-(cyanomethyl)-3-[4-(7H-pyrrolo[2,3-d]pyrimidin-4-yl)-1H-pyrazol-1-yl]cyclobutyl}piperidin-4-yl)oxy]-6-(trifluoromethyl)isonicotinonitrile]	25 to 100	> 100	
N#CC[C@]1(n2cc(-c3ncnc4[nH]ccc34)cn2)C[C@H](N2CCC(Oc3cc(C#N)cc(C(F)(F)F)n3)CC2)C1 (single isomer, unassigned) [Example 134, 2-1(1-{trans-3-(cyanomethyl)-3-[4-(7H-pyrrolo[2,3-d]pyrimidin-4-yl)-1H-pyrazol-1-yl]cyclobutyl}piperidin-4-yl)oxyl-6-(trifluoromethyl)isonicotinonitrile]	< 10	> 100	
N#CC[C@]1(n2cc(-c3ncnc4[nH]ccc34)cn2)C[C@@H](N2CCC(Oc3cc(CN4CCOC4=O)cc(C(F)(F)F)n3)CC2)C1 (single isomer, unassigned) [Example 165, peak 1, {cis-3-(4-{[4-[(2-oxo-1,3-oxazolidin-3-yl)methyl]-6-(trifluoromethyl)pyridin-2-yl]oxy}piperidin-1-yl)-1-[4-(7H-pyrrolo[2,3-d]pyrimidin-4-yl)-1H-pyrazol-1-yl]cyclobutyl}acetonitrile]	25 to 100	> 100	
N#CC[C@]1(n2cc(-c3ncnc4[nH]ccc34)cn2)C[C@H](N2CCC(Oc3cc(CN4CCOC4=O)cc(C(F)(F)F)n3)CC2)C1 (single isomer, unassigned) [Example 165, peak 2, {trans-3-(4-{[4-[(2-oxo-1,3-oxazolidin-3-yl)methyl]-6-(trifluoromethyl)pyridin-2-yl]oxy}piperidin-1-yl)-1-[4-(7H-pyrrolo[2,3-d]pyrimidin-4-yl)-1H-pyrazol-1-yl]cyclobutyl}acetonitrile]	< 10	25 to 100	
CN(C)Cc1cc(F)cc(OC2CCN(C3CC(CC#N)(n4cc(-c5ncnc6[nH]ccc56)cn4)C3)CC2)c1 (single isomer, unassigned; isomer 1) [Example 40, isomer 1, {cis-3-(4-{3-[(dimethylamino)methyl]-5-fluorophenoxy}piperidin-1-yl)-1-[4-(7H-pyrrolo[2,3-d]pyrimidin-4-yl)-1H-pyrazol-1-yl]cyclobutyl}acetonitrile]			IC50 [1, 3]: < 10 nM; IC50 ([2]; Table E, 1 mM ATP, listed as 40, isomer 1, read-out: JAK2 IC50 (nM) +): 10 to 25 nM
C[C@H]1CCCN1Cc1cc(F)cc(OC2CCN(C3CC(CC#N)(n4cc(-c5ncnc6[nH]ccc56)cn4)C3)CC2)c1 (single isomer, unassigned; isomer 1) [Example 41, isomer 1]			IC50 [1, 3]: < 10 nM; IC50 ([2]; Table E, 1 mM ATP, listed as 41, isomer 1, read-out: JAK2 IC50 (nM) +): 10 to 25 nM
CN(C)Cc1cc(F)cc(OC2CCN(C3CC(CC#N)(n4cc(-c5ncnc6[nH]ccc56)cn4)C3)CC2)c1 (single isomer, unassigned; isomer 2) [Example 40, isomer 2, {trans-3-(4-{3-[(dimethylamino)methyl]-5-fluorophenoxy}piperidin-1-yl)-1-[4-(7H-pyrrolo[2,3-d]pyrimidin-4-yl)-1H-pyrazol-1-yl]cyclobutyl}acetonitrile]			IC50 [1, 3]: < 10 nM; IC50 ([2]; Table E, 1 mM ATP, listed as 40, isomer 2, read-out: JAK2 IC50 (nM) +): < 10 nM
C[C@H]1CCCN1Cc1cc(F)cc(OC2CCN(C3CC(CC#N)(n4cc(-c5ncnc6[nH]ccc56)cn4)C3)CC2)c1 (single isomer, unassigned; isomer 2) [Example 41, isomer 2]			IC50 [1, 3]: < 10 nM; IC50 ([2]; Table E, 1 mM ATP, listed as 41, isomer 2, read-out: JAK2 IC50 (nM) +): < 10 nM
CCS(=O)(=O)N1CCN([C@H]2C[C@](CC#N)(n3cc(-c4ncnc5[nH]ccc45)cn3)C2)CC1 [Example 35, {trans-3-[4-(ethylsulfonyl)piperazin-1-yl]-1-[4-(7H-pyrrolo[2,3-d]pyrimidin-4-yl)-1H-pyrazol-1-yl]cyclobutyl}acetonitrile]			IC50 ([2]; Table B, 1 mM ATP, read-out: JAK2 IC50): < 10 nM
